From US20260327221A1, “INHIBITORS OF CYCLIC GMP-AMP SYNTHASE AND USES THEREOF” (Ventus Therapeutics U.S., Inc., priority 2023, published 2026)
Like-named read-outs stand apart in the source and are kept apart here.

Target: hcGAS (Homo sapiens, UniProt Q8N884)
Assay: hcGAS LCMS assay (direct measurement of cGAMP production by LC/MS)
Assay type: biochemical
Procedure, shortened: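 Enzyme, substrates (ATP, GTP) and compound incubated 4 h, then quenched with acetonitrile/water containing 0.15 uM 13C/15N-labeled cGAMP internal standard. cGAMP formed quantified directly by LC/MS on HILIC amide column; IC50 values reported in potency bins.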

[1] = 4 h incubation with enzyme and substrates, cGAMP production by LC/MS, class symbols, read-out: hcGAS LCMS IC50
[2] = hcGAS 0.5 nM, ATP 100 μM, GTP 100 μM, dsDNA 25 nM, pH 7.4, 4 h incubation, read-out: hcGAS inhibition IC50 (activity class, Table D)

Chain of hcGAS (Q8N884 whole entry): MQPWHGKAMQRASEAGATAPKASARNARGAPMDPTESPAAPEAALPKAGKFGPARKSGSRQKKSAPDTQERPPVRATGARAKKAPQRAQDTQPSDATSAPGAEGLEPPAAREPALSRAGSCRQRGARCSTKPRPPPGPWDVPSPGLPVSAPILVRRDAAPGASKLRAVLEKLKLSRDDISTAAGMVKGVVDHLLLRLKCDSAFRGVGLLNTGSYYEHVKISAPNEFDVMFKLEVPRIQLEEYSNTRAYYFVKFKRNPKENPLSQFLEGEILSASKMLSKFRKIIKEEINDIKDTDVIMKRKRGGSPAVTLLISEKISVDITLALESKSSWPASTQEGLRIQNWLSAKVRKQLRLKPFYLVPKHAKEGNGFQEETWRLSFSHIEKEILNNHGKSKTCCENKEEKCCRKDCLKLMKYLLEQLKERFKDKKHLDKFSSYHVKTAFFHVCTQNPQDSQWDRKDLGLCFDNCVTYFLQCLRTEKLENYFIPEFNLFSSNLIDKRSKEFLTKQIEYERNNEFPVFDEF

Row | Compound | IC50 [1] | IC50 [2] | cGAS potency relative to Compound 1 (compared with Compound 1, from activity classes of Table D)
1 | COCCOc1c(-c2c(Cl)cccc2C#N)cc(C(=O)Nc2nnc(-n3nccc3N)s2)oc1=O [Compound 45, N-(5-(5-amino-1H-pyrazol-1-yl)-1,3,4-thiadiazol-2-yl)-4-(2-chloro-6-cyanophenyl)-3-(2-methoxyethoxy)-2-oxo-2H-pyran-6-carboxamide] | < 0.5 nM | < 0.5 nM | –
2 | COCCOc1c(-c2c(Cl)cccc2OC)cc(C(=O)Nc2nnc(-n3nccc3N)s2)oc1=O (single isomer, unassigned) [Compound 15B*, (Sa)-N-(5-(5-amino-1H-pyrazol-1-yl)-1,3,4-thiadiazol-2-yl)-4-(2-chloro-6-methoxyphenyl)-3-(2-methoxyethoxy)-2-oxo-2H-pyran-6-carboxamide] | < 0.5 nM | – | –
3 | COC[C@@H](C)Oc1c(-c2c(OC)cccc2OC)cc(C(=O)Nc2nnc(-n3nccc3N)s2)oc1=O [Compound 47B, (R)—N-(5-(5-amino-1H-pyrazol-1-yl)-1,3,4-thiadiazol-2-yl)-4-(2,6-dimethoxyphenyl)-3-((1-methoxypropan-2-yl)oxy)-2-oxo-2H-pyran-6-carboxamide] | < 0.5 nM | – | –
4 | COCCOc1c(-c2nc(OC)ccc2OC)cc(C(=O)Nc2nnc(-n3nccc3N)s2)oc1=O [Compound 49, N-(5-(5-amino-1H-pyrazol-1-yl)-1,3,4-thiadiazol-2-yl)-4-(3,6-dimethoxypyridin-2-yl)-3-(2-methoxyethoxy)-2-oxo-2H-pyran-6-carboxamide] | 1 to 5 nM | – | –
5 | COc1cccc(OC)c1-c1cc(C(=O)Nc2nnc(-n3nccc3N)s2)oc(=O)c1OCC1CSCCO1 (centres unmarked) [83A*/83B*] | 0.5 to 1 nM | – | –
6 | COCCOc1c(-c2ncc(OC)cc2OC)cc(C(=O)Nc2nnc(-n3nccc3N)s2)oc1=O [Compound 60, N-(5-(5-amino-1H-pyrazol-1-yl)-1,3,4-thiadiazol-2-yl)-4-(3,5-dimethoxypyridin-2-yl)-3-(2-methoxyethoxy)-2-oxo-2H-pyran-6-carboxamide] | 1 to 5 nM | – | –
7 | COc1cccc(OC)c1-c1cc(C(=O)Nc2nnc(-n3nccc3N)s2)oc(=O)c1OCCN1CCCCC1 [Compound 69, N-(5-(5-amino-1H-pyrazol-1-yl)-1,3,4-thiadiazol-2-yl)-4-(2,6-dimethoxyphenyl)-2-oxo-3-(2-(piperidin-1-yl)ethoxy)-2H-pyran-6-carboxamide] | 5 to 20 nM | – | –
8 | COCCOc1c(-c2c(C)cccc2C#N)cc(C(=O)Nc2nnc(-n3nccc3N)s2)oc1=O (single isomer, unassigned) [Compound 24A*, (Ra)—N-(5-(5-amino-1H-pyrazol-1-yl)-1,3,4-thiadiazol-2-yl)-4-(2-cyano-6-methylphenyl)-3-(2-methoxyethoxy)-2-oxo-2H-pyran-6-carboxamide] | < 0.5 nM | < 0.5 nM | –
9 | COCCOc1c(-c2c(Cl)cccc2OC)cc(C(=O)Nc2nnc(-n3nccc3N)s2)oc1=O (single isomer, unassigned) [Compound 15A*, (Ra)—N-(5-(5-amino-1H-pyrazol-1-yl)-1,3,4-thiadiazol-2-yl)-4-(2-chloro-6-methoxyphenyl)-3-(2-methoxyethoxy)-2-oxo-2H-pyran-6-carboxamide] | < 0.5 nM | – | –
10 | COc1cccc(OC)c1-c1cc(C(=O)Nc2nnc(-n3nccc3N)s2)oc(=O)c1OCCN1CCSCC1=O [Compound 75, N-(5-(5-amino-1H-pyrazol-1-yl)-1,3,4-thiadiazol-2-yl)-4-(2,6-dimethoxyphenyl)-2-oxo-3-(2-(3-oxothiomorpholino)ethoxy)-2H-pyran-6-carboxamide] | 0.5 to 1 nM | – | –
11 | COc1c(-c2ccccc2S(C)(=O)=O)cc(C(=O)Nc2nnc(-n3nccc3C)s2)oc1=O [Compound 2, 3-methoxy-N-(5-(5-methyl-1H-pyrazol-1-yl)-1,3,4-thiadiazol-2-yl)-4-(2-(methylsulfonyl)phenyl)-2-oxo-2H-pyran-6-carboxamide] | 5 to 20 nM | – | –
12 | COc1cccc(OC)c1-c1cc(C(=O)Nc2nnc(-n3nccc3N)s2)oc(=O)c1OC[C@H]1COCCO1 (single isomer, unassigned) [Compound 43B] | 0.5 to 1 nM | – | –
13 | COCCOc1c(-c2c(OC)cccc2OC)cc(C(=O)Nc2nnc(-n3nccc3N)s2)oc1=O [Compound 6, N-(5-(5-amino-1H-pyrazol-1-yl)-1,3,4-thiadiazol-2-yl)-4-(2,6-dimethoxyphenyl)-3-(2-methoxyethoxy)-2-oxo-2H-pyran-6-carboxamide] | 0.5 to 1 nM | – | –
14 | COc1cccc(OC)c1-c1cc(C(=O)Nc2nnc(-n3nccc3N)s2)oc(=O)c1OCCN1CCCSCC1 [Compound 89, 3-(2-(1,4-thiazepan-4-yl)ethoxy)-N-(5-(5-amino-1H-pyrazol-1-yl)-1,3,4-thiadiazol-2-yl)-4-(2,6-dimethoxyphenyl)-2-oxo-2H-pyran-6-carboxamide] | 0.5 to 1 nM | – | –
15 | COc1cccnc1-c1cc(C(=O)Nc2nnc(-n3nccc3N)s2)oc(=O)c1O[C@@H]1CC[C@H](O)C1 (single isomer, unassigned) [111A*] | 0.5 to 1 nM | – | –
16 | COCCOc1c(-c2ncccc2OC)cc(C(=O)Nc2nnc(-c3c(F)ccn3C)s2)oc1=O [Compound 18, N-(5-(3-fluoro-1-methyl-1H-pyrrol-2-yl)-1,3,4-thiadiazol-2-yl)-3-(2-methoxyethoxy)-4-(3-methoxypyridin-2-yl)-2-oxo-2H-pyran-6-carboxamide] | 1 to 5 nM | – | –

Row | Compound | IC50 [1] | IC50 [2] | cGAS potency relative to Compound 1 (compared with Compound 1, from activity classes of Table D)
17 | COCCOc1c(-c2ncccc2OC)cc(C(=O)Nc2nnc(-n3nccc3N)s2)oc1=O [Compound 10, N-(5-(5-amino-1H-pyrazol-1-yl)-1,3,4-thiadiazol-2-yl)-3-(2-methoxyethoxy)-4-(3-methoxypyridin-2-yl)-2-oxo-2H-pyran-6-carboxamide] | 1 to 5 nM | – | –
18 | COc1cccnc1-c1cc(C(=O)Nc2nnc(-n3nccc3N)s2)oc(=O)c1OCC(C)(C)CO [Compound 33, N-(5-(5-amino-1H-pyrazol-1-yl)-1,3,4-thiadiazol-2-yl)-3-(3-hydroxy-2,2-dimethylpropoxy)-4-(3-methoxypyridin-2-yl)-2-oxo-2H-pyran-6-carboxamide] | 1 to 5 nM | – | –
19 | COc1cccnc1-c1cc(C(=O)Nc2nnc(-n3nccc3N)s2)oc(=O)c1O[C@H]1CC[C@@H](O)C1 (single isomer, unassigned) [111B*] | 0.5 to 1 nM | – | –
20 | COc1c(-c2nn(C)cc2C#N)cc(C(=O)Nc2nnc(-n3nccc3C)s2)oc1=O [Compound 31, 4-(4-cyano-1-methyl-1H-pyrazol-3-yl)-3-methoxy-N-(5-(5-methyl-1H-pyrazol-1-yl)-1,3,4-thiadiazol-2-yl)-2-oxo-2H-pyran-6-carboxamide] | 5 to 20 nM | – | –
21 | COc1cccc(OC)c1-c1cc(C(=O)Nc2nnc(-n3nccc3N)s2)oc(=O)c1O[C@H]1CCC[C@@H]1O (single isomer, unassigned) [71A*] | 0.5 to 1 nM | – | –
22 | COc1cccc(OC)c1-c1cc(C(=O)Nc2nnc(-n3nccc3N)s2)oc(=O)c1OCC(C)(C)CO [Compound 36, N-(5-(5-amino-1H-pyrazol-1-yl)-1,3,4-thiadiazol-2-yl)-4-(2,6-dimethoxyphenyl)-3-(3-hydroxy-2,2-dimethylpropoxy)-2-oxo-2H-pyran-6-carboxamide] | 0.5 to 1 nM | – | –
23 | COc1cccc(OC)c1-c1cc(C(=O)Nc2nnc(-n3nccc3N)s2)oc(=O)c1O[C@@H](C)CO (single isomer, unassigned) [Compound 55A*] | 0.5 to 1 nM | – | –
24 | COc1cccc(OC)c1-c1cc(C(=O)Nc2nnc(-n3nccc3N)s2)oc(=O)c1OCC1(OC)CC1 [Compound 42, N-(5-(5-amino-1H-pyrazol-1-yl)-1,3,4-thiadiazol-2-yl)-4-(2,6-dimethoxyphenyl)-3-((1-methoxycyclopropyl)methoxy)-2-oxo-2H-pyran-6-carboxamide] | 0.5 to 1 nM | – | –
25 | COCCOc1c(-c2c(C#N)cccc2COC)cc(C(=O)Nc2nnc(-n3nccc3N)s2)oc1=O [Compound 39, N-(5-(5-amino-1H-pyrazol-1-yl)-1,3,4-thiadiazol-2-yl)-4-(2-cyano-6-(methoxymethyl)phenyl)-3-(2-methoxyethoxy)-2-oxo-2H-pyran-6-carboxamide] | 1 to 5 nM | – | –
26 | COc1cccnc1-c1cc(C(=O)Nc2nnc(-n3nccc3N)s2)oc(=O)c1O[C@H]1CCC[C@@H](OC)C1 (single isomer, unassigned) [113C*] | ≥ 60 nM | – | –
27 | COc1cccc(OC)c1-c1cc(C(=O)Nc2nnc(-n3nccc3N)s2)oc(=O)c1OCCN1CCSCC1 [Compound 44, N-(5-(5-amino-1H-pyrazol-1-yl)-1,3,4-thiadiazol-2-yl)-4-(2,6-dimethoxyphenyl)-2-oxo-3-(2-thiomorpholinoethoxy)-2H-pyran-6-carboxamide] | < 0.5 nM | < 0.5 nM | improved cGAS potency
28 | COc1cccc(OC)c1-c1cc(C(=O)Nc2nnc(-n3nccc3N)s2)oc(=O)c1OC[C@@H](C)OC [Compound 54, (R)-N-(5-(5-amino-1H-pyrazol-1-yl)-1,3,4-thiadiazol-2-yl)-4-(2,6-dimethoxyphenyl)-3-(2-methoxypropoxy)-2-oxo-2H-pyran-6-carboxamide] | 0.5 to 1 nM | – | –
29 | COc1cccc(OC)c1-c1cc(C(=O)Nc2nnc(-n3nccc3N)s2)oc(=O)c1OCCN1CCO[C@@H](CSC)C1 [82B*, (R)-N-(5-(5-amino-1H-pyrazol-1-yl)-1,3,4-thiadiazol-2-yl)-4-(2,6-dimethoxyphenyl)-3-(2-(2-((methylthio)methyl)morpholino)ethoxy)-2-oxo-2H-pyran-6-carboxamide] | 0.5 to 1 nM | – | –
30 | COc1cccc(OC)c1-c1cc(C(=O)Nc2nnc(-n3nccc3N)s2)oc(=O)c1O[C@@H]1CCOC1 [52B*, (R)-N-(5-(5-amino-1H-pyrazol-1-yl)-1,3,4-thiadiazol-2-yl)-4-(2,6-dimethoxyphenyl)-2-oxo-3-((tetrahydrofuran-3-yl)oxy)-2H-pyran-6-carboxamide] | 0.5 to 1 nM | – | –
31 | COCCOc1c(-c2c(OC)cccc2OC)cc(C(=O)Nc2nnc(-c3c(Cl)ccn3C)s2)oc1=O [Compound 5, N-(5-(3-chloro-1-methyl-1H-pyrrol-2-yl)-1,3,4-thiadiazol-2-yl)-4-(2,6-dimethoxyphenyl)-3-(2-methoxyethoxy)-2-oxo-2H-pyran-6-carboxamide] | < 0.5 nM | – | –
